The values below are quoted from earlier work in patent US20140171466A1, “PAIN MANAGEMENT IN SICKLE CELL ANEMIA” (priority 2012, published 2014).

Entries after “also recorded” stand apart in the source; their conditions may differ. Like-named read-outs stand apart in the source and are kept apart here.

Series [1] concerns BERK mice.
Series [2] deals with BERK sickle mice.
Series [3] deals with nonhuman primates. As to conditions: systemic administration.
In series [4] the test system is mice. Conditions: systemically administered.
For series [5] the following is noted: in vivo.
For series [6] the following is noted: compound on its own.

Turning to `CCCCCCC(C)(C)c1ccc([C@@H]2C[C@H](O)CC[C@H]2CCCO)c(O)c1` [CP 55,940], the “deep hyperalgesia incited by H/R” value in series [1] is given as “ameliorated”. Further, the hyperalgesia result in series [2] (low dose 0.3 mg/kg) is on record as “attenuated hyperalgesia”.

In the case of `O=C1NCN(c2ccccc2)C12CCN(C1CCC3CCCc4cccc1c43)CC2` (stereo in doubt) [Compound 7, ((1 S,3aS)-8-(2,3,3a,4,5,6-hexahydro-1H-phenalen-1-yl)-1-phenyl-1,3,8-triaza-spiro[4.5]decan-4-one)], in series [3], the spinal anti-nociceptive action result is recorded as “spinal anti-nociceptive action of NOP agonists has been confirmed”. The “morphine conditioned place preference (CPP)” value in series [4] was “block morphine conditioned place preference (CPP)”.

Turning to `CC1(N2CCC(n3c([C@@H]4CCCNC4)nc4ccccc43)CC2)CCCCCCC1` [Compound 10, 1-[1-(1-methylcyclooctyl)-4-piperidinyl]-2-[(3R)-3-piperidinyl]-1H-benzimidazole], in series [5], the anxiolytic effects result is listed as “exhibits anxiolytic effects” and the “effect on memory or locomotion” value is on record as “no effect on memory or locomotion”.

For `O=C1Cc2ccccc2N1C1CCN(C2CCCCCCC2)CC1` [Compound 3, 1-(1-cyclooctylpiperidin-4-yl)-indolin-2-one], the “reward in the CPP paradigm” value in series [6] is reported as “not rewarding on its own”. Take `CN1CC[C@]23c4c5ccc(O)c4O[C@H]2[C@@H](O)C=C[C@H]3[C@H]1C5` [morphine]: in series [2] (high dose 20 mg/kg, 20 mg/kg), the hyperalgesia result is given as “effective; also recorded: markedly attenuated”.
